Test results reported in patent US7384912B2, “Treatment of bone disorders with skeletal anabolic drugs” (Osteotrophin, LLC, priority 2002, dated 2008).
Read-outs that look alike come from different tables or passages of the source. Marks after values point to notes of the source that are not given here. No end group written: not given here.

What was measured:
[1] = system: patients with osteoporosis; details: cited from earlier work
[2] = system: ovariectomized (OVX) rats; test: Bone mass measurements in ovariectomized rats; format: in vivo, rat; parameters: Left Femur Length: unit not given here; details: 40 μg/kg/day s.c. once daily
[3] = system: adenylate cyclase in SaOS-2 intact cells; test: Adenylate cyclase assay in SaOS-2 intact cells; format: cell-based, human; details: 15° C., 60 min
Procedure: Adenylate cyclase-stimulating activity was examined in confluent SAOS-2 cells as previously described for ROS 17/2.8 cells (Merendino et al., Science 231:388-390, (1986)), with the following modification. The intact cell assay was conducted at 15° C., the same conditions employed for binding to intact SaOS-2 cells (vide supra). […] Dose response curves for each peptide were thus generated using 60 min incubations at 15° C. under binding assay conditions.
(§1) Statistical differences were assessed by paired and unpaired two-tailed Student's t test.

[4] = system: ovariectomized (OVX) rats; test: Bone histomorphometry of the right proximal tibia in ovariectomized rats; format: in vivo, rat; parameters: Trabecular Number Tb.N.: unit not given here; details: for Apposition Rate MAR / Bone Formation Rate BFR/BS / Mineralizing Surface MS/BS / Osteoclast Surface Oc.PM / Resorbing Surface E.PM / Trabecular Area Tb.A. / Trabecular Number Tb.N. / Trabecular Space Tb.Sp. / Trabecular Thickness Tb.Th.: 40 μg/kg/day s.c. once daily
[5] = system: ovariectomized (OVX) rats; test: Biomechanical measures of strength in ovariectomized rats; format: in vivo, rat; details: 40 μg/kg/day s.c. once daily
[6] = molecular target: T1, PTH/PTHrP receptors in human renal cortical membranes (RCM) (Homo sapiens, UniProt Q03431); test: Competition binding of 125I-(Tyr36)hPTHrP-(1-36)NH2 to human renal cortical membranes
T1 sequence (Q03431 27-593): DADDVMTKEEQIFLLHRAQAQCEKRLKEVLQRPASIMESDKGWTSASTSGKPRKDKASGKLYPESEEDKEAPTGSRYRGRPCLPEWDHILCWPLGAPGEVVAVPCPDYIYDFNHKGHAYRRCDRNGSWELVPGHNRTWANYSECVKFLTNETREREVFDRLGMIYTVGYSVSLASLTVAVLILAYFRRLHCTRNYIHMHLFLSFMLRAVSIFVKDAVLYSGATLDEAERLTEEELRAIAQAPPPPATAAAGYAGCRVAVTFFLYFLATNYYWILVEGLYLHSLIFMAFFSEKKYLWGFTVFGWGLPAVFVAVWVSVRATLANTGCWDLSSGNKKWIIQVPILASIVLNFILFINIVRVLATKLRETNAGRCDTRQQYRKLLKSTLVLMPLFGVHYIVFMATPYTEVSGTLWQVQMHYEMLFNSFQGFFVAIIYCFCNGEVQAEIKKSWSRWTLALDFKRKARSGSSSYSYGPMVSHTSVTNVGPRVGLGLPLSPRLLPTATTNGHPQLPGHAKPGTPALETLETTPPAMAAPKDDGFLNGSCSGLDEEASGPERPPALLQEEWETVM
Procedure: All steps were performed in the presence of the following protease inhibitors: aprotinin [10 Kallikrein inhibitor units (KIU/ml], pepstatin (5 μg/ml), leupeptin (45 μg/ml), and phenylmethanesulfanylfluoride (10 μg/ml). Normal human kidney cortex was from four separate nephrectomy specimens removed for localized transitional cell carcinoma, renal cell carcinoma, or benign cysts. Renal function in all individuals was normal as assessed by serum creatinine and pyelography. Membranes were pooled, aliquoted, and stored at −70° C. for later use.
Human RCM were added to a final concentration of 90 μg/ml. […] The incubation time of 30 min was used for subsequent equilibrium binding competition studies.
as §1

[7] = two to three years of administration

## [Ca+2] [calcium]
[1]; [7]
  increase in lumbar spine bone mineral density: ~2%

## hPTH-(1-34)
[2]; 30 days
  Left Femur BMC: 0.340 ± 0.011^a,c
  Left Femur BMD: 0.200 ± 0.004^a
  Left Femur Length: 34.9 ± 0.3
  Left Femur X Area: 1.68 ± 0.04^c
  Radius Ash Weight: 60 ± 1^c mg
  Whole Body BMC: 64 ± 3^c
[2]; 90 days
  Left Femur BMC: 0.401 ± 0.010^a,c
  Left Femur BMD: 0.232 ± 0.005^a,c
  Left Femur Length: 35.7 ± 0.2^c
  Left Femur X Area: 1.73 ± 0.03^c
  Radius Ash Weight: 66 ± 1^a,c mg
  Whole Body BMC: 69 ± 3^c
[2]; 180 days
  Left Femur BMC: 0.451 ± 0.012^a,c
  Left Femur BMD: 0.234 ± 0.004^a,c
  Left Femur Length: 35.6 ± 0.3^c
  Left Femur X Area: 1.84 ± 0.04^a,c
  Radius Ash Weight: 72 ± 2^a,c mg
  Whole Body BMC: 71 ± 3^c
[1]; at three months (Finkelstein et al.)
  increase in urinary hydroxyproline and pyridinolines: approximately 200%
[1]; at three months (Lindsay et al.)
  increase in resorption assessed using urinary NIX: 25%
[1]; multiple studies
  increase in lumbar spine bone mineral density: 10-15%
[1]; one study (Roe et al.)
  increase in lumbar spine trabecular bone density by QCT: ≤ 80%
  increase in spine bone mineral density by DXA: ≤ 30%
[3]
  EC50: 1.6 nM
[4]; 30 days
  Apposition Rate MAR: 2.4 ± 0.1^c μm/d
  Bone Formation Rate BFR/BS: 1.18 ± 7^a,c μm/d
  Mineralizing Surface MS/BS: 49 ± 2^a,c %
  Osteoclast Surface Oc.PM: 2.3 ± 0.6%
  Resorbing Surface E.PM: 8.6 ± 1.2%
  Trabecular Area Tb.A.: 19 ± 2^a %
  Trabecular Number Tb.N.: 2.3 ± 0.1
  Trabecular Space Tb.Sp.: 367 ± 28^a,c Φm
  Trabecular Thickness Tb.Th.: 81 ± 5^a,c Φm
[4]; 90 days
  Apposition Rate MAR: 3.0 ± 0.1^a,c μm/d
  Bone Formation Rate BFR/BS: 1.23 ± 4^a,c μm/d
  Mineralizing Surface MS/BS: 41 ± 1^a,c %
  Osteoclast Surface Oc.PM: 2.6 ± 0.5%
  Resorbing Surface E.PM: 10.6 ± 1.3^c %
  Trabecular Area Tb.A.: 38 ± 3^a,c %
  Trabecular Number Tb.N.: 2.4 ± 0.2
  Trabecular Space Tb.Sp.: 274 ± 34^a Φm
  Trabecular Thickness Tb.Th.: 158 ± 6^a,c Φm
[4]; 180 days
  Apposition Rate MAR: 3.8 ± 0.7^c μm/d
  Bone Formation Rate BFR/BS: 1.53 ± 28^a,c μm/d
  Mineralizing Surface MS/BS: 40 ± 2^a,c %
  Osteoclast Surface Oc.PM: 2.0 ± 0.4%
  Resorbing Surface E.PM: 6.4 ± 1.5%
  Trabecular Area Tb.A.: 38 ± 3^a,c %
  Trabecular Number Tb.N.: 2.3 ± 0.1
  Trabecular Space Tb.Sp.: 279 ± 29^a Φm
  Trabecular Thickness Tb.Th.: 163 ± 8^a,c Φm
[4]; 90 days of treatment
  bone in the right proximal tibia, photomicrographs: not only restores lost bone but significantly increases trabecular bone volume over Sham
[5]; 30 days
  Femur Neck Ultimate Load, (Fu): 139 ± 3^ac N
  Mid-Femur Cortical Thickness (t): 0.64 ± 0.02^ac mm
  Mid-Femur Moment of Inertia (I): 4.5 ± 0.2 mm^4
  Mid-Femur Stiffness (S): 571 ± 13 N/mm
  Mid-Femur Toughness (u): 6.0 ± 0.3^c MJ/m^3
  Mid-Femur Ultimate Load (Fu): 185 ± 6^ac N
  Mid-Femur Ultimate Stress (Su): 229 ± 7 MPa
  Mid-Femur Work to Failure (U): 63 ± 4 mJ
  Mid-Femur Young's Modulus (E): 9.1 ± 0.3 Gpa
[5]; 90 days
  Femur Neck Ultimate Load, (Fu): 146 ± 4^ac N
  Mid-Femur Cortical Thickness (t): 0.71 ± 0.02^ac mm
  Mid-Femur Moment of Inertia (I): 4.5 ± 0.1 mm^4
  Mid-Femur Stiffness (S): 641 ± 14^ac N/mm
  Mid-Femur Toughness (u): 5.7 ± 0.3^a MJ/m^3
  Mid-Femur Ultimate Load (Fu): 209 ± 4^ac N
  Mid-Femur Ultimate Stress (Su): 251 ± 7^ac MPa
  Mid-Femur Work to Failure (U): 62 ± 3^a mJ
[5]; 180 days
  Femur Neck Ultimate Load, (Fu): 147 ± 6^ac N
  Mid-Femur Cortical Thickness (t): 0.89 ± 0.01^ac mm
  Mid-Femur Moment of Inertia (I): 5.4 ± 0.3^ac mm^4
  Mid-Femur Stiffness (S): 814 ± 31^ac N/mm
  Mid-Femur Toughness (u): 5.0 ± 0.3^ac MJ/m^3
  Mid-Femur Ultimate Load (Fu): 241 ± 9^ac N
  Mid-Femur Ultimate Stress (Su): 251 ± 8^ac MPa
  Mid-Femur Work to Failure (U): 61 ± 4^ac mJ

## O=C(c1ccc(OCCN2CCCCC2)cc1)c1c(-c2ccc(O)cc2)sc2cc(O)ccc12 [raloxifene]
[1]; [7]
  increase in lumbar spine bone mineral density: ~3%

## vitamin D
[1]; [7]
  increase in lumbar spine bone mineral density: ~2%

## SVSEMQLMHNLGEHRHTVERQDWLQMKLQDVHSA-NH2 [cPTH-(1-34)NH2, Chicken PTH-(1-34)amide]
[6]; human RCM, 30° C., 30 min, read-out: Binding (IC50) Kidney membranes
  IC50: 21.5 ± 8.5 nM

## PTH(1-84)
[1]; doses of approximately 40 micrograms
  hypercalcemia, serum calcium: up to 15 mg/dl

## CC(C)C[C@H](NC(=O)[C@H](CCCCN)NC(=O)CNC(=O)[C@H](CC(C)C)NC(=O)[C@@H](NC(=O)[C@@H]1CSSC[C@H](N)C(=O)N[C@@H](CO)C(=O)N[C@@H](CC(N)=O)C(=O)N[C@@H](CC(C)C)C(=O)N[C@@H](CO)C(=O)N[C@@H]([C@@H](C)O)C(=O)N1)C(C)C)C(=O)N[C@@H](CO)C(=O)N[C@@H](CCC(N)=O)C(=O)N[C@@H](CCC(=O)O)C(=O)N[C@@H](CC(C)C)C(=O)N[C@@H](Cc1c[nH]cn1)C(=O)N[C@@H](CCCCN)C(=O)N[C@@H](CC(C)C)C(=O)N[C@@H](CCC(N)=O)C(=O)N[C@H](C(=O)N[C@@H](Cc1ccc(O)cc1)C(=O)N1CCC[C@H]1C(=O)N[C@@H](CCCNC(=N)N)C(=O)N[C@H](C(=O)N[C@@H](CC(N)=O)C(=O)N[C@H](C(=O)NCC(=O)N[C@@H](CO)C(=O)NCC(=O)N[C@H](C(=O)N1CCC[C@H]1C(N)=O)[C@@H](C)O)[C@@H](C)O)[C@@H](C)O)[C@@H](C)O [calcitonin]
[1]; [7]
  increase in lumbar spine bone mineral density: ~2%

B1: bPTH-(1-84) (protein)
chain: AVSEIQFMHNLGKHLSSMERVEWLRKKLQDVHNFVALGASIAYRDGSSQRPRKKEDNVLVESHQKSLGEADKADVDVLIKAKPQ
notes: Bovine full-length parathyroid hormone from the National Hormone and Pituitary Program
[6]; RCM and SaOS-2 membranes
  relative affinity less than the amino-terminal analogs: approximately 10 fold
